The assay deals with human α7-containing nAChRs (Homo sapiens, UniProt P36544). Put plainly: cell-based. Format: cell-based.

SMILES strings stand for the structures. Where two headings read alike, the source gives them in different places. Where a SMILES comes first, the peptide text is derived from it. Bridges are numbered along the chain shown (N, C = ends).

human α7-containing nAChRs, sequence (P36544 23-502 limits assumed): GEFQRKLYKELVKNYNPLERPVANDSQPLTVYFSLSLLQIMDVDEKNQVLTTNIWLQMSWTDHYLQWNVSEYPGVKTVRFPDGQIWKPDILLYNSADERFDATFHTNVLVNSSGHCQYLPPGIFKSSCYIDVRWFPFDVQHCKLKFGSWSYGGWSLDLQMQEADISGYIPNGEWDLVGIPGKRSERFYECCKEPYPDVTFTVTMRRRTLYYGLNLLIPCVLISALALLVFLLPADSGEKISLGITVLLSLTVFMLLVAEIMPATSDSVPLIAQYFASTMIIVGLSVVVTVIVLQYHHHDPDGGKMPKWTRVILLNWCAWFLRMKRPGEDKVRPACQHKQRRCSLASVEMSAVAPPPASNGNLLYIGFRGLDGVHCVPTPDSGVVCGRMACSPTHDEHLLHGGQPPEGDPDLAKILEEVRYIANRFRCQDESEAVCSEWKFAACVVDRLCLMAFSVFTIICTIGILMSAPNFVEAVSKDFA

What is called IC50 is the concentration at which inhibition is half-maximal. Compound `CC(C)C[C@@H]1NC(=O)[C@H](CCCNC(=N)N)NC(=O)[C@@H]2CSSC[C@H](NC(=O)[C@@H](NC(=O)[C@@H](N)CO)CSSC[C@@H](C(=O)N[C@H](C(N)=O)C(C)C)NC(=O)[C@@H]3CCCN3C(=O)[C@H](Cc3c[nH]cn3)NC(=O)[C@H](CC(N)=O)NC1=O)C(=O)N[C@@H](C)C(=O)N[C@@H](CCCNC(=N)N)C(=O)N[C@@H](CC(N)=O)C(=O)N1CCC[C@H]1C(=O)N[C@@H](C)C(=O)N2` [rAusIA [H11L]] (H-SCCARNPACRLNHPCV-NH2; disulfide 2-15, 3-9) displayed an IC50 (SEM) of 30 ± 2.2 µM.

The compound `CC[C@H](C)[C@@H]1NC(=O)[C@H](CC(N)=O)NC(=O)[C@@H]2CCCN2C(=O)[C@H](CC(N)=O)NC(=O)[C@H](CC(N)=O)NC(=O)[C@H](C(C)C)NC(=O)[C@H](CCCNC(=N)N)NC(=O)[C@@H]2CSSC[C@H](NC(=O)[C@@H](NC(=O)CNC(=O)[C@@H](N)CO)CSSC[C@@H](C(N)=O)NC1=O)C(=O)N[C@@H](CO)C(=O)N[C@@H](CCCNC(=N)N)C(=O)N[C@@H](CC(N)=O)C(=O)N1CCC[C@H]1C(=O)N[C@@H](C)C(=O)N2` [rLsIA [∇R6]] (H-SGCCSRNPACRVNNPNIC-NH2; disulfide 3-18, 4-10) returned an IC50 (SEM) of 66 ± 4.1 µM.

For the compound `CC(C)[C@H](NC(=O)[C@@H]1CSSC[C@H](NC(=O)[C@@H](N)CO)C(=O)N[C@H]2CSSC[C@H](NC(=O)[C@H](C)NC(=O)[C@@H]3CCCN3C(=O)[C@H](CC(N)=O)NC(=O)[C@H](C)NC(=O)[C@H](C)NC2=O)C(=O)N[C@@H](CCCNC(=N)N)C(=O)N[C@@H](Cc2c[nH]cn2)C(=O)N[C@@H](CC(N)=O)C(=O)N[C@@H](Cc2c[nH]cn2)C(=O)N2CCC[C@H]2C(=O)N1)C(N)=O` [rAusIA [R5A]] (H-SCCAANPACRHNHPCV-NH2; disulfide 2-15, 3-9), the IC50 was more than 100 µM.

`CC(C)[C@H](NC(=O)[C@@H]1CSSC[C@@H]2NC(=O)[C@@H](NC(=O)[C@@H](N)CO)CSSC[C@H](NC(=O)[C@H](C)NC(=O)[C@@H]3CCCN3C(=O)[C@H](CC(N)=O)NC(=O)[C@H](CO)NC(=O)[C@H](C)NC2=O)C(=O)N[C@@H](CCCNC(=N)N)C(=O)N[C@@H](Cc2c[nH]cn2)C(=O)N[C@@H](CC(N)=O)C(=O)N[C@@H](Cc2c[nH]cn2)C(=O)N2CCC[C@H]2C(=O)N1)C(N)=O` [gAusIA [R5S]] (H-SCCASNPACRHNHPCV-NH2; disulfide 2-9, 3-15) yielded an IC50 of more than 100 µM.

Compound `CC(C)[C@H](NC(=O)[C@@H]1CSSC[C@H](NC(=O)[C@@H](N)CO)C(=O)N[C@H]2CSSC[C@H](NC(=O)[C@H](C)NC(=O)[C@@H]3CCCN3C(=O)[C@H](CC(N)=O)NC(=O)[C@H](CO)NC2=O)C(=O)N[C@@H](CCCNC(=N)N)C(=O)N[C@@H](Cc2c[nH]cn2)C(=O)N[C@@H](CC(N)=O)C(=O)N[C@@H](Cc2c[nH]cn2)C(=O)N2CCC[C@H]2C(=O)N1)C(N)=O` [rAusIA [A4S ∆5]] (H-SCCSNPACRHNHPCV-NH2; disulfide 2-14, 3-8) registered an IC50 (SEM) of 29 ± 1.1 µM.

Under “SEM”, `CC[C@H](C)[C@@H]1NC(=O)[C@H](CC(N)=O)NC(=O)[C@@H]2CCCN2C(=O)[C@H](CC(N)=O)NC(=O)[C@H](CC(N)=O)NC(=O)[C@H](C(C)C)NC(=O)[C@H](CCCNC(=N)N)NC(=O)[C@@H]2CSSC[C@H](NC(=O)CNC(=O)[C@@H](N)CO)C(=O)N[C@@H](CSSC[C@@H](C(N)=O)NC1=O)C(=O)N[C@@H](C)C(=O)N[C@@H](CO)C(=O)N[C@@H](CC(N)=O)C(=O)N1CCC[C@H]1C(=O)N[C@@H](C)C(=O)N2` [gLsIA [∇A5]] (H-SGCCASNPACRVNNPNIC-NH2; disulfide 3-10, 4-18) yielded an IC50 of 48 ± 13.2 µM.

As to `CC[C@H](C)[C@@H]1NC(=O)[C@H](CC(N)=O)NC(=O)[C@@H]2CCCN2C(=O)[C@H](CC(N)=O)NC(=O)[C@H](CC(N)=O)NC(=O)[C@H](C(C)C)NC(=O)[C@H](CCCNC(=N)N)NC(=O)[C@@H]2CSSC[C@H](NC(=O)CNC(=O)[C@@H](N)CO)C(=O)N[C@@H](CSSC[C@@H](C(N)=O)NC1=O)C(=O)N[C@@H](CO)C(=O)N[C@@H](CCCNC(=N)N)C(=O)N[C@@H](CC(N)=O)C(=O)N1CCC[C@H]1C(=O)N[C@@H](C)C(=O)N2` [gLsIA [∇R6]] (H-SGCCSRNPACRVNNPNIC-NH2; disulfide 3-10, 4-18), the IC50 (SEM) came to 8 ± 0.52 µM.

For the setting “SEM”, `CC(C)[C@H](NC(=O)[C@@H]1CSSC[C@@H]2NC(=O)[C@@H](NC(=O)[C@@H](N)CO)CSSC[C@H](NC(=O)[C@H](C)NC(=O)[C@@H]3CCCN3C(=O)[C@H](CC(N)=O)NC(=O)[C@H](CCCNC(=N)N)NC2=O)C(=O)N[C@@H](CCCNC(=N)N)C(=O)N[C@@H](Cc2c[nH]cn2)C(=O)N[C@@H](CC(N)=O)C(=O)N[C@@H](Cc2c[nH]cn2)C(=O)N2CCC[C@H]2C(=O)N1)C(N)=O` [gAusIA [∆4]] (H-SCCRNPACRHNHPCV-NH2; disulfide 2-8, 3-14) gave an IC50 of 1 ± 0.03 µM.

Turning to `CC(C)[C@H](NC(=O)[C@@H]1CSSC[C@H](NC(=O)CN)C(=O)N[C@H]2CSSC[C@H](NC(=O)[C@H](C)NC(=O)[C@@H]3CCCN3C(=O)[C@H](CC(N)=O)NC(=O)[C@H](CCCNC(=N)N)NC(=O)[C@H](C)NC2=O)C(=O)N[C@@H](CCCNC(=N)N)C(=O)N[C@@H](Cc2c[nH]cn2)C(=O)N[C@@H](CC(N)=O)C(=O)N[C@@H](Cc2c[nH]cn2)C(=O)N2CCC[C@H]2C(=O)N1)C(N)=O` [rAusIA [S1G]] (H-GCCARNPACRHNHPCV-NH2; disulfide 2-15, 3-9), the “Ratio (IC50 ratio between gAusIA/rAusIA and its corresponding analogues)” value is listed as 2.00; the “fold decrease (loss) in potency relative to wildtype of same isomer” value is given as “two”.

Consider `CC(C)C[C@@H]1NC(=O)[C@H](CCCNC(=N)N)NC(=O)[C@@H]2CSSC[C@H](NC(=O)[C@@H](N)CO)C(=O)N[C@@H](CSSC[C@@H](C(=O)N[C@H](C(N)=O)C(C)C)NC(=O)[C@@H]3CCCN3C(=O)[C@H](Cc3c[nH]cn3)NC(=O)[C@H](CC(N)=O)NC1=O)C(=O)N[C@@H](C)C(=O)N[C@@H](CCCNC(=N)N)C(=O)N[C@@H](CC(N)=O)C(=O)N1CCC[C@H]1C(=O)N[C@@H](C)C(=O)N2` [gAusIA [H11L]] (H-SCCARNPACRLNHPCV-NH2; disulfide 2-9, 3-15), for which the IC50 was more than 100 µM and the “antagonistic activity / potency at α7-containing nAChRs in words” value is “inactive”.

Regarding `CC(C)[C@H](NC(=O)[C@@H]1CSSC[C@@H]2NC(=O)[C@@H](NC(=O)[C@@H](N)CO)CSSC[C@H](NC(=O)[C@H](C)NC(=O)[C@@H]3CCCN3C(=O)[C@H](CC(N)=O)NC(=O)[C@H](C)NC(=O)[C@H](C)NC2=O)C(=O)N[C@@H](CCCNC(=N)N)C(=O)N[C@@H](Cc2c[nH]cn2)C(=O)N[C@@H](CC(N)=O)C(=O)N[C@@H](Cc2c[nH]cn2)C(=O)N2CCC[C@H]2C(=O)N1)C(N)=O` [gAusIA [R5A]] (H-SCCAANPACRHNHPCV-NH2; disulfide 2-9, 3-15), the IC50 was more than 100 µM.

For the compound `CC(C)[C@H](NC(=O)[C@@H]1CSSC[C@@H]2NC(=O)[C@@H](NC(=O)CN)CSSC[C@H](NC(=O)[C@H](C)NC(=O)[C@@H]3CCCN3C(=O)[C@H](CC(N)=O)NC(=O)[C@H](CCCNC(=N)N)NC(=O)[C@H](C)NC2=O)C(=O)N[C@@H](CCCNC(=N)N)C(=O)N[C@@H](Cc2c[nH]cn2)C(=O)N[C@@H](CC(N)=O)C(=O)N[C@@H](Cc2c[nH]cn2)C(=O)N2CCC[C@H]2C(=O)N1)C(N)=O` [gAusIA [S1G]] (H-GCCARNPACRHNHPCV-NH2; disulfide 2-9, 3-15), the “Ratio (IC50 ratio between gAusIA/rAusIA and its corresponding analogues)” value was 0.70; the “antagonistic activity / potency at α7-containing nAChRs in words” value is given as “comparable potency to gAusIA”.

For the origin of these results see paper PMC8578332 (Scientific Reports, 2021).
